Source: patent US10882856B2 (BeiGene, Ltd., priority 2017, dated 2021)
Counter-ions that a name gives are not always drawn.

Tests used:
IDO1 [1] = target: T1, IDO1 (Homo sapiens, UniProt P14902); test: IDO1 enzymatic assay; assay type: biochemical; design: His tag (N); made in house; host or cells: E. coli; conditions: read-out: Enzyme IC50 IDO1
How it was run: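 Compound was incubated with 50 nM His-tagged IDO1 from E. coli, 1.3 mM D-tryptophan, 5 mM L-ascorbic acid, methylene blue and 0.4 mg/mL catalase in 50 mM potassium phosphate pH 7.5, 0.1% BSA, at 24 °C for 1.5 hours. Activity was the slope of N'-formylkynurenine formation read continuously at 321 nm for 1 hour. IC50 was obtained from remaining activity versus compound concentration.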

[2] = target: T2, cellular TDO2 in HEK293-TDO2 cells (Homo sapiens, UniProt P48775); test: 293-TDO2 cell-based assay (Kyn colorimetric); conditions: 48 hours of incubation
T2 construct: expressed in transfected cells; host or cells: HEK293 (ATCC), stably transfected
How it was run: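 HEK293 cells stably expressing TDO2 (10000/well, phenol red-free DMEM, 10% FBS) were dosed 4 h after plating and incubated 48 h at 37° C. Supernatant Kyn was measured after TCA precipitation by 4-(dimethylamino)benzaldehyde colour at 480 nm. IC50 came from four-parameter logistic fits.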

IDO1 [3] = target: T1, IDO1; test: Hela cell-based IDO1 assay; conditions: Hela cells
How it was run: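 Kynurenine was measured at 480 nm in trichloroacetic acid-deproteinised supernatant after adding 2% 4-(dimethylamino)benzaldehyde. This supernatant came from HeLa cells seeded at 8000 per well in 96-well plates in phenol red-free DMEM with 10% FBS and, from 4 hours after seeding, exposed for 48 hours at 37 °C, 5% CO2 to DMSO-diluted compound dilutions, IFN-γ (final 100 ng/mL) and 0.4 mM L-Trp. The resulting data were fitted with a four-parameter logistic model in XLfit. Potency was taken from those fits.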

T2 sequence (P48775 whole entry): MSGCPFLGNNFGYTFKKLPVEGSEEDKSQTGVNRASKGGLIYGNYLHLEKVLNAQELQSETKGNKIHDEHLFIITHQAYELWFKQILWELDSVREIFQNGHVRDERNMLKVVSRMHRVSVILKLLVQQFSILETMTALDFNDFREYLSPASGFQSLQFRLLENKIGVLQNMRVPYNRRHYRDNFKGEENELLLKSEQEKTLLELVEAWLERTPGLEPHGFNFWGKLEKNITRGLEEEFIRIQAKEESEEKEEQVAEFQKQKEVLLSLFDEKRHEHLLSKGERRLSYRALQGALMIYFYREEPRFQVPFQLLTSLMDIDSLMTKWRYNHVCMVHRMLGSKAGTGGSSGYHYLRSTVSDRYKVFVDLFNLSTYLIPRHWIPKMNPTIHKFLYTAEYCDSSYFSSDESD
T1 sequence (P14902 whole entry): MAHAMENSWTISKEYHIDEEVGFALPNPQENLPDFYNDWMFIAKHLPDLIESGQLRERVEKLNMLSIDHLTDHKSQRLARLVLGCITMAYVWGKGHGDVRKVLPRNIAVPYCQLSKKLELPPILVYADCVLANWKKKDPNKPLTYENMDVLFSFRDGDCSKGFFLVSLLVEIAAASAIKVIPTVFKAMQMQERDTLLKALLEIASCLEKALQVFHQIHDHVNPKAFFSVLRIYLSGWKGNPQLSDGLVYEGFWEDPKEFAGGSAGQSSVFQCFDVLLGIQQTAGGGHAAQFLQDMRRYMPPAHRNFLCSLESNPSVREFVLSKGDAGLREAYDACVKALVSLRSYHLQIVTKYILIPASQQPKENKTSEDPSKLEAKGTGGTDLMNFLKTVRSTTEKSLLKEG

Row | IC50 (IDO1 [1]) | EC50 [2] | EC50 (IDO1 [3]) | Structure (SMILES)
1 | 47 nM | > 10000 nM | 2230 nM | OC(c1c(C2CC2)ccn2cncc12)C1CCN(c2ccccn2)CC1 (stereo not drawn) [Example C146, (7-cyclopropylimidazo[1,5-a]pyridin-8-yl)(1-(pyridin-2-yl)piperidin-4-yl)methanol]
2 | 100 nM | > 10000 nM | 700 nM | OC(c1c(C2CC2)ccc2cncn12)C1CCC(c2ccc(Oc3ccccc3)cc2)CC1 (stereo not drawn) [Example D120, (6-cyclopropylimidazo[1,5-a]pyridin-5-yl)(4-(4-phenoxyphenyl)cyclohexyl)methanol]
3 | 27 nM | > 10000 nM | 100 nM | OC(c1c(C2CC2)ccc2cncn12)C1CCC(c2ccccc2)CC1 (stereo not drawn) [Example D101, (6-cyclopropylimidazo[1,5-a]pyridin-5-yl)(4-phenylcyclohexyl)methanol]
4 | > 10000 nM | > 10000 nM | > 10000 nM | O[C@@H](c1c(C2CC2)ccn2cncc12)[C@H]1CC[C@H](c2ccc(Cl)cc2)CC1 (single isomer, unassigned) [Example C102b]
5 | 16 nM | > 10000 nM | 18 nM | O[C@H](c1c(C2CC2)ccc2cncn12)[C@H]1CC[C@H](c2ccnc3ccc(F)cc32)CC1 (single isomer, unassigned) [Example D150a]
6 | 17 nM | > 10000 nM | 80 nM | COc1ccc([C@H]2CC[C@H](C(O)c3c(C4CC4)ccc4cncn34)CC2)cc1Cl (single isomer, unassigned) [Example D148a, hydrochloride]
7 | 33 nM | > 10000 nM | 62 nM | COc1cccc(C2CCC(C(O)c3c(C4CC4)ccc4cncn34)CC2)c1 (stereo not drawn) [Example D143, (6-cyclopropylimidazo[1,5-a]pyridin-5-yl)(4-(3-methoxyphenyl)cyclohexyl)methanol]
8 | 22 nM | > 10000 nM | 36 nM | OC(c1c(C2CC2)ccc2cncn12)C1CCN(c2ccc(F)cc2)CC1 (stereo not drawn) [Example D171, (6-cyclopropylimidazo[1,5-a]pyridin-5-yl)(1-(4-fluorophenyl)piperidin-4-yl)methanol]
9 | 28 nM | > 10000 nM | 22 nM | COc1cccc(C2CCC(C(O)c3c(C(C)C)ccc4cncn34)CC2)c1 (stereo not drawn) [Example D169, (6-isopropylimidazo[1,5-a]pyridin-5-yl)(4-(3-methoxyphenyl)cyclohexyl)methanol]
10 | 26 nM | > 10000 nM | 492 nM | OC(c1c(C2CC2)ccc2cncn12)C1CCC(c2cc(F)c(F)cc2F)CC1 (stereo not drawn) [Example D149, (6-cyclopropylimidazo[1,5-a]pyridin-5-yl)(4-(2,4,5-trifluorophenyl)cyclohexyl)methanol]
11 | 18 nM | > 10000 nM | 33 nM | O[C@H](c1c(C2CC2)ccc2cncn12)C1CCN(c2cccc(Cl)c2)CC1 (single isomer, unassigned) [Example D173a]
12 | 74 nM | > 10000 nM | 1300 nM | OC(c1c(C2CC2)ccn2cncc12)C1CCN(c2cccnc2)CC1 (stereo not drawn) [Example C148, (7-cyclopropylimidazo[1,5-a]pyridin-8-yl)(1-(pyridin-3-yl)piperidin-4-yl)methanol]
13 | 11 nM | > 10000 nM | 145 nM | NC(=O)c1ccc([C@H]2CC[C@H]([C@H](O)c3c(C4CC4)ccc4cncn34)CC2)cc1 [Example D153, 4-((1S,4r)-4-(S)-(6-cyclopropylimidazo[1,5-a]pyridin-5-yl(hydroxy)methyl)cyclohexyl)benzamide]
14 | 20 nM | > 10000 nM | 198 nM | COc1ccc([C@H]2CC[C@H]([C@H](O)c3c(C4CC4)ccc4cncn34)CC2)c(Cl)c1 (single isomer, unassigned) [Example D147a]
15 | 34 nM | > 10000 nM | 263 nM | OC(c1c(C2CC2)ccc2cncn12)C1CCC(c2ccc3cccnc3c2)CC1 (stereo not drawn) [Example D161, (6-cyclopropylimidazo[1,5-a]pyridin-5-yl)(4-(quinolin-7-yl)cyclohexyl)methanol]
16 | 36 nM | > 10000 nM | 82 nM | Oc1ccc(C2CCC(C(O)c3c(C4CC4)ccn4cncc34)CC2)cc1 (racemic) [Example C104]
17 | 5200 nM | > 10000 nM | > 10000 nM | Oc1ccc([C@H]2CC[C@H](C(O)c3c(C4CC4)ccn4cncc34)CC2)cc1 (single isomer, unassigned) [Example C104b]
18 | 22 nM | > 10000 nM | 21 nM | OC(c1c(C2CC2)ccc2cncn12)C1CCN(c2ccc(F)c3ncccc23)CC1 (stereo not drawn) [Example D175, (6-cyclopropylimidazo[1,5-a]pyridin-5-yl)(1-(8-fluoroquinolin-5-yl)piperidin-4-yl)methanol]

Row | IC50 (IDO1 [1]) | EC50 [2] | EC50 (IDO1 [3]) | Structure (SMILES)
19 | 39 nM | > 10000 nM | 51 nM | OC(c1c(C2CC2)ccn2cncc12)C1CCC(c2ccnc3ccc(F)cc23)CC1 (stereo not drawn) [Example C128, (7-cyclopropylimidazo[1,5-a]pyridin-8-yl)(4-(6-fluoroquinolin-4-yl)cyclohexyl)methanol]
20 | 40 nM | > 10000 nM | 170 nM | OC(c1c(C2CC2)ccc2cncn12)C1CCC(c2ccc(F)cc2F)CC1 (stereo not drawn) [Example D127, (6-cyclopropylimidazo[1,5-a]pyridin-5-yl)(4-(2,4-difluorophenyl)cyclohexyl)methanol]
21 | 17 nM | > 10000 nM | 25 nM | CC(C)c1ccc2cncn2c1[C@@H](O)[C@H]1CC[C@H](c2cccc(Cl)c2)CC1 (single isomer, unassigned) [Example D168a]
22 | 2800 nM | > 10000 nM | > 10000 nM | O[C@@H](c1cc(Cl)cc2cncn12)[C@H]1CC[C@H](c2ccc(Cl)cc2)CC1 (single isomer, unassigned) [Example E101b]
23 | 18 nM | > 10000 nM | 15 nM | CC(C)c1ccc2cncn2c1[C@@H](O)[C@H]1CC[C@H](c2cccc(F)c2)CC1 (single isomer, unassigned) [Example D167a]
24 | 130 nM | > 10000 nM | 1100 nM | Oc1ccc(N2CCC(C(O)c3c(C4CC4)ccn4cncc34)CC2)cc1 (stereo not drawn) [Example C143]
25 | 28 nM | > 10000 nM | 27 nM | OC(c1c(C2CC2)ccc2cncn12)[C@H]1CC[C@H](c2csc3ccccc32)CC1 (single isomer, unassigned) [Example D155a]
26 | 24 nM | > 10000 nM | 843 nM | CN(C)C(=O)c1ccc(C2CCC(C(O)c3c(C4CC4)ccc4cncn34)CC2)cc1 (stereo not drawn) [Example D125, 4-(4-((6-cyclopropylimidazo[1,5-a]pyridin-5-yl)(hydroxy)methyl)cyclohexyl)-N,N-dimethylbenzamide]
27 | 19 nM | > 10000 nM | 138 nM | CNC(=O)c1ccc([C@H]2CC[C@H]([C@H](O)c3c(C4CC4)ccc4cncn34)CC2)cc1 (single isomer, unassigned) [Example D124a]
28 | > 10000 nM | > 10000 nM | > 10000 nM | O[C@@H](c1c(C2CC2)ccn2cncc12)[C@H]1CC[C@H](c2cccc(F)c2)CC1 (single isomer, unassigned) [Example C109b]
29 | 5900 nM | > 10000 nM | 6150 nM | O[C@@H](c1c(C2CC2)ccc2cncn12)[C@H]1CC[C@H](c2cccc(Cl)c2)CC1 (single isomer, unassigned) [Example D116b]
30 | 1200 nM | > 10000 nM | 2980 nM | COCCOc1ccc([C@H]2CC[C@H]([C@@H](O)c3c(C4CC4)ccn4cncc34)CC2)cc1 (single isomer, unassigned) [Example C103b]
31 | 41 nM | > 10000 nM | 29 nM | CC(C)c1ccc2cncn2c1C(O)C1CCC(c2ccc(F)cc2)CC1 (stereo not drawn) [Example D166, (4-(4-fluorophenyl)cyclohexyl)(6-isopropylimidazo[1,5-a]pyridin-5-yl)methanol]
32 | > 10000 nM | > 10000 nM | 8900 nM | O[C@@H](c1c(C2CC2)ccc2cncn12)[C@H]1CC[C@H](c2ccc3sccc3c2)CC1 (single isomer, unassigned) [Example D133b]
33 | 22 nM | > 10000 nM | 188 nM | CNC(=O)c1ccc(C2CCC(C(O)c3c(C4CC4)ccc4cncn34)CC2)cc1 (stereo not drawn) [Example D124, 4-(4-((6-cyclopropylimidazo[1,5-a]pyridin-5-yl)(hydroxy)methyl)cyclohexyl)-N-methylbenzamide]
34 | 92 nM | > 10000 nM | 285 nM | Cc1ccccc1C1CCC(C(O)c2c(C3CC3)ccn3cncc23)CC1 (stereo not drawn) [Example C112, (7-cyclopropylimidazo[1,5-a]pyridin-8-yl)(4-(o-tolyl)cyclohexyl)methanol]
35 | 890 nM | > 10000 nM | > 10000 nM | OC(c1c(C2CC2)ccn2cncc12)C1CCN(C2CC2)CC1 (stereo not drawn) [Example C139, (7-cyclopropylimidazo[1,5-a]pyridin-8-yl)(1-cyclopropylpiperidin-4-yl)methanol]
